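Test compounds were applied to cells in 96-well plates for 48 hours at 5 doses. GI50: concentration for 50% inhibition of growth.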 Active and inactive are the calls of the source. Rule as the data show it: active = GI50 up to about 1.1 µM and inactive = higher.
Tests used:
Assay in all cases: NCI tumour cell line growth inhibition, 48 h
[1] = system: 786-0
[2] = system: A498
[3] = system: CAKI-1
[4] = system: CCRF-CEM
[5] = system: COLO 205
[6] = system: HCT-116
[7] = system: HT-29
[8] = system: K562
[9] = system: M14
[10] = system: MCF7
[11] = system: MDA-MB-435
[12] = system: NCI-H23
[13] = system: OVCAR-5
[14] = system: RXF 393
[15] = system: SF-268
[16] = system: SK-OV-3
[17] = system: SNB-75
[18] = system: T47D
[19] = system: TK-10
[20] = system: UACC-62

SMILES	GI50 [1]	GI50 [2]	GI50 [3]	GI50 [4]	GI50 [5]	GI50 [6]	GI50 [7]	GI50 [8]	GI50 [9]	GI50 [10]	GI50 [11]	GI50 [12]	GI50 [13]	GI50 [14]	GI50 [15]	GI50 [16]	GI50 [17]	GI50 [18]	GI50 [19]	GI50 [20]
CC(C)(C)c1cc(C(=O)/C=C/C=C/c2ccccc2)cc(C(C)(C)C)c1O	17.1 µM (inactive)	20.6 µM (inactive)	29 µM (inactive)	3.15 µM (inactive)	16.6 µM (inactive)	18.2 µM (inactive)	22.9 µM (inactive)	7.31 µM (inactive)	17.2 µM (inactive)	8.3 µM (inactive)	11.2 µM (inactive)	27.2 µM (inactive)	36.7 µM (inactive)	2.94 µM (inactive)	25.2 µM (inactive)	31.8 µM (inactive)	14.7 µM (inactive)	28.9 µM (inactive)	19.5 µM (inactive)	18.1 µM (inactive)
COc1cccc(/C=N/n2c(Cc3ccccc3)n[nH]c2=O)c1	50.1 µM (inactive)	> 100 µM (inactive)	> 47.4 µM (inactive)	> 100 µM (inactive)	> 100 µM (inactive)	> 100 µM (inactive)	> 35.4 µM (inactive)	> 100 µM (inactive)	> 100 µM (inactive)	> 100 µM (inactive)	> 100 µM (inactive)	> 100 µM (inactive)	> 100 µM (inactive)	11.2 µM (inactive)	43 µM (inactive)	> 100 µM (inactive)	29.4 µM (inactive)	> 73.6 µM (inactive)	> 100 µM (inactive)	> 100 µM (inactive)
COC(=O)/C=C/c1ccccc1N=[S@](C)(=O)c1ccc(C)cc1	27.9 µM (inactive)	8.41 µM (inactive)	15 µM (inactive)	11.5 µM (inactive)	8.34 µM (inactive)	15.3 µM (inactive)	7.93 µM (inactive)	4.09 µM (inactive)	12.6 µM (inactive)	13.4 µM (inactive)	3.54 µM (inactive)	28.1 µM (inactive)	36.1 µM (inactive)	13.2 µM (inactive)	29.4 µM (inactive)	30.3 µM (inactive)	6.21 µM (inactive)	31.8 µM (inactive)	22.4 µM (inactive)	8.24 µM (inactive)
CC(=O)Nc1ccc(NS(=O)(=O)c2ccc3nc(C)n(NS(=O)(=O)c4ccc(NC(C)=O)cc4)c(=O)c3c2)cc1	> 100 µM (inactive)	> 100 µM (inactive)	> 100 µM (inactive)	> 100 µM (inactive)	> 100 µM (inactive)	> 100 µM (inactive)	> 100 µM (inactive)	> 100 µM (inactive)	> 100 µM (inactive)	> 100 µM (inactive)	> 100 µM (inactive)	> 100 µM (inactive)	> 100 µM (inactive)	> 100 µM (inactive)	> 100 µM (inactive)	> 100 µM (inactive)	> 100 µM (inactive)	> 100 µM (inactive)	> 100 µM (inactive)	> 100 µM (inactive)
CCCCC1CCCCCCc2[nH]c(/C=C3\N=C(c4ccc[nH]4)C=C3OC)cc21 (stereo not given)	< 0.01 µM (active)	0.515 µM (active)	0.0502 µM (active)	< 0.01 µM (active)	< 0.011 µM (active)	< 0.01 µM (active)	< 0.01 µM (active)	< 0.01 µM (active)	0.0136 µM (active)	< 0.0139 µM (active)	< 0.01 µM (active)	< 0.0221 µM (active)	0.116 µM (active)	0.078 µM (active)	0.0676 µM (active)	0.326 µM (active)	< 0.0306 µM (active)	< 0.01 µM (active)	0.338 µM (active)	< 0.0127 µM (active)

From ChEMBL document CHEMBL1201862, “PubChem BioAssay data set” (2004)
